Test results taken from patent US20230061083A1, “KRAS G12C INHIBITOR COMPOUND AND USE THEREOF” (Evopoint Biosciences Co., Ltd., priority 2019, published 2023).

Columns and labels:
[1] = Plasma protein binding (PPB), RED plate dialysis, mouse plasma; assay type: in vitro ADME; details: 37° C., read-out: PPB (% free state) M
Procedure: (§1) Human (H), Rat (R) and Mouse (M) Plasma Protein Binding (PPB)
(§2) A test compound and a positive control were each mixed with blank plasma to a final concentration of 1 μM. The mixture was added to a RED plate plasma sample chamber, followed by addition of a dialysis buffer in the buffer chamber. The sample was prepared in triplicate for each compound. The chambers were sealed, and the plate was incubated at 37° C. with shaking at 60 rpm for 5 h. After incubation, the samples were transferred out of the plasma chamber and the buffer chamber and treated as shown in Table 5. After centrifugation at 5594 g for 15 min, the supernatant was collected and analyzed by LC/MS/MS.
(§3) The compound concentration in each sample was expressed in terms of the ratio between peak areas (ratio of peak area of compound to peak area of internal standard) by mass spectrometry analysis, and the plasma protein binding was calculated according to the following formulas.
(§4) % free state=(buffer chamber peak area ratio/plasma chamber peak area ratio)×100%
(§5) % bound state=100%−% free state

[2] = Plasma protein binding (PPB), RED plate dialysis, rat plasma; assay type: in vitro ADME; details: 37° C., read-out: PPB (% free state) R
Procedure: as §1, §2, §3, §4, §5

[3] = test system: ERK phosphorylation in H358 cells; experiment: In-cell western blot assay for ERK phosphorylation in H358 cells; assay type: cell-based; details: Homo sapiens, NCI-H358, 10000 nM to 0.051 nM, 3-fold dilution, read-out: H358 p-ERK IC50
Procedure: In-Cell Western Blot Assay for ERK Phosphorylation in H358 Cells
H358 cells were thawed and pre-cultured for 3 days to be in a good state (RPMI 1640+10% FBS+1% P/S). The cells were plated on to a 384-well plate, and a test compound, positive control compounds (AMG510 and isomers thereof) and a negative control were added. The compound was at concentrations from 10000 nM to 0.051 nM. 3-fold dilution was performed. The mixture was well mixed and incubated at 37° C. and 5% CO2. The cells were washed with PBS and suspended in methanol. After another washing with PBS, a blocking buffer was added. After 1 h of blocking at room temperature, a primary antibody mixture (rabbit anti pERK, mouse anti GAPDH) was added, followed by overnight incubation at 4° C. The cells were washed 3 times with PBST, and a secondary antibody mixture (goat anti rabbit 800CW and goat anti mouse 680RD) was added, followed by incubation at room temperature in the dark. The 384-well plate was reversed and centrifuged at 1000 rpm for 1 min, and read on an Odyssey CLx fluorescence imaging system for fluorescence signal values, which was corrected using DMSO and ARS1620. The specific calculation is as follows:
Relative Signal=Signal Value(total channel 800)/Signal Value(total channel 700)
Relative pERK=(Sample−Ave_L)/(Ave_H−Ave_L).
The IC50 values of the compounds were calculated using a four-parameter fitting algorithm, specifically as follows:
Y=Bottom+(Top−Bottom)/(1+10^((Log IC50−X)×HillSlope))

[4] = Plasma protein binding (PPB), RED plate dialysis, human plasma; assay type: in vitro ADME; details: 1 μM, 37° C., 5 h, read-out: PPB (% free state) H
Procedure: as §1, §2, §3, §4, §5

[5] = target: KRAS G12C protein (GDP-KRAS-4B-G12C) (Homo sapiens, UniProt P01116, G12C); experiment: Assay for binding rate to KRAS G12C protein by LC-MS method; details: 3 uM compound; for Binding rate to KRAS G12C protein (LC-MS POC, %) 3 uM/5 min: 5 min incubation at room temperature; for Binding rate to KRAS G12C protein (LC-MS POC, %) 3 uM/30 min: 30 min incubation at room temperature
Procedure: Assay for Binding Rate to KRAS G12C Protein by LC-MS Method
A 10 mM stock solution of a test compound in DMSO was prepared. […] An equal volume of GDP buffer (20 mM Hepes, pH 7.5, 50 mM NaCl, 0.5 mM MgCl2, 10 mM EDTA, 2 mM DTT, GDP) was added to prepare KRASG12C protein loaded with GDP.
After incubation at room temperature for 5 min and 30 min, the reaction was terminated by addition of 5 μL of 5% formic acid. After being centrifuged at 15,000 rpm for 10 min, the mixture was subjected to LC-MS analysis and data analysis.
The percent binding of a test compound to KRASG12C protein was calculated as: Percent binding to KRAS G12C (%)=peak height of conjugate of test compound and KRAS G12C protein/[peak height of conjugate of test compound and KRAS G12C protein+peak height of free KRAS G12C protein] x 100.

plasma proteins = experiment: Plasma protein binding (PPB), RED plate dialysis, human plasma; assay type: in vitro ADME
Procedure: as §1, §2, §3, §4, §5

| fraction unbound at 5 h, 1 μM [1] | fraction unbound at 5 h, 1 μM [2] | IC50 [3] | fraction unbound at 5 h, 1 μM [4] | SMILES | further results |
| --- | --- | --- | --- | --- | --- |
| – | – | 442 nM | – | C=CC(=O)N1CCN(c2nc(=O)n(-c3c(C)ccnc3C(C)C)c3c2cc(F)c(-c2ccccc2O)[n+]3[O-])[C@@H](C)C1 [SZ-014010A/B] | Binding rate to KRAS G12C protein (LC-MS POC, %) 3 uM/5 min [5]: 47.7%; Binding rate to KRAS G12C protein (LC-MS POC, %) 3 uM/30 min [5]: 84.9% |
| – | – | 405 nM | – | C=CC(=O)N1CCN(c2nc(=O)n(-c3c(C)ccnc3C(C)C)c3c2cc(F)c(-c2ccccc2F)[n+]3[O-])[C@@H](C)C1 [SZ-014011A/B] | Binding rate to KRAS G12C protein (LC-MS POC, %) 3 uM/5 min [5]: 37.8%; Binding rate to KRAS G12C protein (LC-MS POC, %) 3 uM/30 min [5]: 75.5% |
| – | – | 36 nM | – | C=CC(=O)N1CCN(c2nc(=O)n(-c3c(C(C)C)ncnc3C(C)C)c3c2cc(F)c(-c2cccc4ccccc24)[n+]3[O-])[C@@H](C)C1 [SZ-014013A/B] | – |
| – | – | 11.4 nM | – | C=CC(=O)N1CCN(c2nc(=O)n(-c3c(C(C)C)ncnc3C(C)C)c3c2cc(Cl)c(-c2ccccc2O)[n+]3[O-])[C@@H](C)C1 [SZ-014031A] | – |
| – | – | 494 nM | – | C=CC(=O)N1CCN(c2nc(=O)n(-c3c(C(C)C)ncnc3C(C)C)c3c2cc(F)c(-c2cccc(F)c2O)[n+]3[O-])[C@@H](C)C1 [SZ-014043] | Binding rate to KRAS G12C protein (LC-MS POC, %) 3 uM/5 min [5]: 58.5%; Binding rate to KRAS G12C protein (LC-MS POC, %) 3 uM/30 min [5]: 90.0% |
| – | – | 145 nM | – | C=CC(=O)N1CCN(c2nc(=O)n(-c3c(C(C)C)ncnc3C(C)C)c3c2cc(F)c(-c2cc(F)ccc2O)[n+]3[O-])[C@@H](C)C1 [SZ-014044] | Binding rate to KRAS G12C protein (LC-MS POC, %) 3 uM/5 min [5]: 84.1%; Binding rate to KRAS G12C protein (LC-MS POC, %) 3 uM/30 min [5]: 97.2% |
| – | – | 44 nM | – | [2H]c1c([2H])c([2H])c(-c2c(F)cc3c(N4CCN(C(=O)C=C)C[C@@H]4C)nc(=O)n(-c4c(C(C)C)ncnc4C(C)C)c3[n+]2[O-])c(O)c1[2H] [SZ-014051A/B] | – |
| 0.377 | 0.616 | 41 nM | 0.587 | C=CC(=O)N1CCN(c2nc(=O)n(-c3c(C(C)C)ncnc3C(C)C)c3c2cc(F)c(-c2c(F)cccc2F)[n+]3[O-])[C@@H](C)C1 [SZ-014053] | Binding rate to KRAS G12C protein (LC-MS POC, %) 3 uM/5 min [5]: 85.6%; Binding rate to KRAS G12C protein (LC-MS POC, %) 3 uM/30 min [5]: 100.0%; molar concentration not bound to plasma proteins, times higher than reference compound SZ-014138 (plasma proteins; versus SZ-014138): no less than 4 times |
| – | – | 207 nM | – | C=CC(=O)N1CCN(c2nc(=O)n(-c3c(C(C)C)ncnc3C(C)C)c3c2cc(F)c(-c2c(F)ccc(F)c2O)[n+]3[O-])[C@@H](C)C1 [SZ-014062AB] | – |
| – | – | 191 nM | – | C=CC(=O)N1CCN(c2nc(=O)n(-c3c(C)ccnc3C(C)C)c3c2cc(F)c(-c2c(F)cccc2F)[n+]3[O-])[C@@H](C)C1 [SZ-014077A/B] | – |
| – | – | 60 nM | – | C=CC(=O)N1CCN(c2nc(=O)n(-c3c(C(C)C)ncnc3C(C)C)c3c2cc(F)c(-c2c(F)cccc2Cl)[n+]3[O-])[C@@H](C)C1 [SZ-014082A/B] | – |
| – | – | 143 nM | – | C=CC(=O)N1CCN(c2nc(=O)n(-c3c(C)ccnc3C(C)C)c3c2cc(F)c(-c2c(O)cccc2F)[n+]3[O-])[C@@H](C)C1 [SZ-014089A/B] | – |
| – | – | 9.4 nM | – | C=CC(=O)N1CCN(c2nc(=O)n(-c3c(C(C)C)ncnc3C(C)C)c3c2cc(Cl)c(-c2ccccc2F)[n+]3[O-])[C@@H](C)C1 [SZ-014108A/B] | – |
| – | – | 31 nM | – | C=CC(=O)N1CCN(c2nc(=O)n(-c3c(C(C)C)ncnc3C(C)C)c3c2cc(F)c(-c2ccccc2O)[n+]3[O-])[C@@H](C)C1 [SZ-014111A/B] | – |
| – | – | 2.8 nM | – | C=CC(=O)N1CCN(c2nc(=O)n(-c3c(C(C)C)cccc3C(C)C)c3c2cc(Cl)c(-c2c(O)cccc2F)[n+]3[O-])[C@@H](C)C1 [SZ-014116AB] | – |
| – | – | 691 nM | – | C=CC(=O)N1CCN(c2nc(=O)n(-c3c(CC)ncnc3CC)c3c2cc(F)c(-c2c(F)cccc2F)[n+]3[O-])[C@@H](C)C1 [SZ-014119] | Binding rate to KRAS G12C protein (LC-MS POC, %) 3 uM/5 min [5]: 20.8%; Binding rate to KRAS G12C protein (LC-MS POC, %) 3 uM/30 min [5]: 79.2% |
| 0.336 | 0.517 | 90 nM | 0.455 | C=CC(=O)N1CCN(c2nc(=O)n(-c3c(C(C)C)ncnc3C(C)C)c3c2cc(F)c(-c2ccccc2)[n+]3[O-])[C@@H](C)C1 [SZ-014129] | molar concentration not bound to plasma proteins, times higher than reference compound SZ-014141 (plasma proteins; versus SZ-014141): no less than 10 times |
| 0.039 | 0.188 | 139 nM | 0.074 | C=CC(=O)N1CCN(c2nc(=O)n(-c3c(C(C)C)cccc3C(C)C)c3c2cc(F)c(-c2ccccc2)[n+]3[O-])[C@@H](C)C1 [SZ-014130] | molar concentration not bound to plasma proteins, times higher than reference compound SZ-014142 (plasma proteins; versus SZ-014142): no less than 30 times |
| – | – | 2090 nM | – | C=CC(=O)N1CCN(c2nc(=O)n(-c3c(C)ccnc3CC)c3c2cc(F)c(-c2c(F)cccc2F)[n+]3[O-])[C@@H](C)C1 [SZ-014131] | – |
| 0.005 | 0.114 | 3540 nM | 0.076 | C=C(F)C(=O)N1CCN(c2nc(=O)n(-c3c(C(C)C)ncnc3C(C)C)c3nc(-c4c(F)cccc4F)c(F)cc23)[C@@H](C)C1 [SZ-014137, reference compound] | – |
| 0.011 | 0.203 | 34 nM | 0.129 | C=CC(=O)N1CCN(c2nc(=O)n(-c3c(C(C)C)ncnc3C(C)C)c3nc(-c4c(F)cccc4F)c(F)cc23)[C@@H](C)C1 [SZ-014138, reference compound] | – |
| 0.007 | 0.022 | 81 nM | 0.015 | C=CC(=O)N1CCN(c2nc(=O)n(-c3c(C(C)C)cccc3C(C)C)c3nc(-c4c(F)cccc4F)c(F)cc23)[C@@H](C)C1 [SZ-014139, reference compound] | – |
| 0.008 | 0.127 | 170 nM | 0.04 | C=CC(=O)N1CCN(c2nc(=O)n(-c3c(C(C)C)ncnc3C(C)C)c3nc(-c4ccccc4)c(F)cc23)[C@@H](C)C1 [SZ-014141, reference compound] | – |
| 0.047 | 0.008 | 296 nM | 0.002 | C=CC(=O)N1CCN(c2nc(=O)n(-c3c(C(C)C)cccc3C(C)C)c3nc(-c4ccccc4)c(F)cc23)[C@@H](C)C1 [SZ-014142, reference compound] | – |

| SMILES | fraction unbound at 5 h, 1 μM [1] | fraction unbound at 5 h, 1 μM [2] | IC50 [3] | fraction unbound at 5 h, 1 μM [4] | further results |
| --- | --- | --- | --- | --- | --- |
| C=CC(=O)N1CCN(c2nc(=O)n(-c3c(C)ccnc3C(C)C)c3nc(-c4c(O)cccc4F)c(F)cc23)[C@@H](C)C1 [SZ-014004A, reference compound] | 0.112 | 0.145 | 12 nM | 0.068 | – |
